# Data from US4473583A, “Compositions containing certain derivatives of 4-phenyl-4-oxobuten-2-oic acid and methods of treatment using them” (Roussel UCLAF, priority 1981, dated 1984).
# Columns and labels:
# [1] = system: total acidity of the gastric secretions; experiment: anti-gastric secretion activity (pylorus ligation, Shay technique); type: in vivo; details: male rats, pylorus ligated, 10 mg/kg intraduodenally, 3 hours
# Experimental: (1) Determination of the anti-gastric secretion activity
# The technique used is described by H. SHAY et al. in Gastroenterology 5, 43, 1945.
# Male rats were used having a weight of about 200 g (10 animals per lot), and were kept without food for 48 hours but allowed a 8% gluclose solution ad libitum. After the rats were slightly anesthetized with ether, the pylorus of each was ligated. After the end of the operation, the product to be tested in different doses or, in the case of the control animals a solution of 0.5% carboxymethyl cellulose, was administered intraduodenally, after which the abdominal incision sutured.
# Three hours later, the animals were sacrified and their stomachs removed after ligating the esophagus. The gastric juice was removed and centrifuged. The volume of gastric juice obtained was then determined and the total acidity of the gastric juice was obtained by titrating a 100 μl sample of gastric juice to a pH of 7 by means of 1/10 N sodium hydroxide solution.
# The percentages of the variation of the total acidity of the gastric secretions, between test animals and control animals were calculated and are set forth in the table appearing below.
# [2] = acute toxicity (LD50); details: mouse, in vivo; mice, oral
# Experimental: (3) Determination of the Acute Toxicity
# The LD50 was evaluated after the administration of the products orally to mice.
# [3] = system: stomach ulcers; experiment: anti-ulcer activity, stress ulcer (stress and cold); type: in vivo; details: female rats, stress and cold (8° C., two hours), 10 mg/kg through an esophageal tube, 2 hours before stress
# Experimental: (2) Determination of the anti-ulcer activity Stress Ulcer
# The technique consists of inducing stomach ulcers by stress in rats (stress and cold). The technique used is described by E. C. SENAY and R. J. LEVINE, Proc. Soc. Exp. Biol. 124, 1221 (1967).
# Female rats of 150 g (5 animals per lot) were used which has been fasting for 48 hours with water ad libitum and glucose solution for 8 hours. Through an esophageal tube, the animals received a test compound, or a solution of 0.5% carboxy methyl cellulose in the case of the control animals. Two hours later, the animals were bundled in a jacket of netting. Their paws were bound and the entire unit was placed in a refrigerator at 8° C. for two hours. The rats were freed and killed by ether.
# Their stomachs were removed, opened along the greater curvature and examined with a binocular magnifier. The seriousness of the lesions was graded from 1 to 3 for each stomach.
# For each lot of rats, the average intensity of the ulcerations was calculated. The degree of ulceration for test animals was compared with the control animals for each lot.
Compound,Anti-secretion activity: Acid Concentration (% variation as compared with the controls) [1] [%],LD50 [2] [mg/kg],Anti-ulcer activity: Ulceration (% variation as compared with the controls) [3] [%]
"Cc1ccc(C(=O)C=CC(=O)O)cc1 [Example 2, 4-tolyl-4-oxobuten-2-oic acid]",-61,250,-39
"O=C(O)/C=C/C(=O)c1ccccc1 [Example 1, (E) 4-phenyl-4-oxobuten-2-oic acid]",-66,250,-54
"O=C(O)/C=C\C(=O)c1ccccc1 [Example 3, (Z) 4-phenyl-4-oxobuten-2-oic acid]",-81,370,-93
